# Reference: ChEMBL document CHEMBL5137032, “Design, synthesis of DNA-interactive 4-thiazolidinone-based indolo-/pyrroloazepinone conjugates as potential cytotoxic and topoisomerase I inhibitors” (Eur J Med Chem, 2022)
# pIC50: −log10 of the molar value. Activity calls are given as the source filed them. The calls are words filed in the database; no cut-off is given here.
# Tests used:
# [1] = molecular target: DNA topoisomerase 2-alpha (Homo sapiens) (UniProt P11388); assay: Inhibition of DNA topoisomerase 2 (unknown origin) assessed as reduction in decatenation using kDNA as substrate incubated for 30 mins measured by agarose gel electrophoresis method
# A549 = assay: Cytotoxicity against human A549 cells assessed as cell growth inhibition incubated for 48 hrs by MTT assay; assay type: functional, cell-based; settings: A549, 48 h
# SK-MEL-28 [2] = assay: Induction of apoptosis in human SK-MEL-28 cells assessed as cell shrinkage at 2.08 to 8.32 uM incubated for 48 hrs by phase contrast microscopy; assay type: functional, cell-based; settings: dose 2.08-8.32 µM, DDE = dose-dependent effect
# HCT-116 = assay: Cytotoxicity against human HCT-116 cells assessed as cell growth inhibition incubated for 48 hrs by MTT assay; assay type: functional, cell-based; settings: HCT-116, 48 h
# SK-MEL-28 [3] = assay: Induction of apoptosis in human SK-MEL-28 cells assessed as cell membrane disruption at 2.08 to 8.32 uM incubated for 48 hrs by phase contrast microscopy; assay type: functional, cell-based; settings: dose 2.08-8.32 µM, DDE = dose-dependent effect
# SK-MEL-28 [4] = assay: Induction of apoptosis in human SK-MEL-28 cells assessed as necrotic cells at 2.08 to 8.32 uM incubated for 48 hrs by Annexin V-FITC/propidium iodide staining based flow cytometric analysis; assay type: functional; settings: dose 2.08-8.32 µM
# Calf thymus DNA [5] = assay: Binding affinity to calf thymus DNA assessed as hyperchromicity at 10 uM by circular dichroism spectroscopy; assay type: nucleic-acid assay; settings: Bos taurus
# SK-MEL-28 [6] = assay: Inhibition of cell migration in human SK-MEL-28 cells at 2.08 to 8.32 uM incubated for 48 hrs by wound healing assay based phase contrast microscopy; assay type: functional; settings: dose 2.08-8.32 µM, DDE = dose-dependent effect
# SK-MEL-28 [7] = assay: Induction of apoptosis in human SK-MEL-28 cells assessed as chromatin condensation at 2.08 to 8.32 uM incubated for 48 hrs by AO/EB staining based fluorescence microscopy; assay type: functional, cell-based; settings: dose 2.08-8.32 µM, DDE = dose-dependent effect
# SK-MEL-28 [8] = assay: Induction of intracellular ROS generation in human SK-MEL-28 cells at 2.08 to 8.32 uM incubated for 48 hrs by […] fluorescence microscopic analysis; assay type: functional, cell-based; settings: dose 2.08-8.32 µM, DDE = dose-dependent effect
# MCF7 = assay: Cytotoxicity against human MCF7 cells assessed as cell growth inhibition incubated for 48 hrs by MTT assay; assay type: functional, cell-based; settings: MCF7, 48 h
# SK-MEL-28 [9] = assay: Induction of apoptosis in human SK-MEL-28 cells assessed as chromatin condensation at 2.08 to 8.32 uM incubated for 48 hrs by DAPI staining based fluorescence microscopic analysis; assay type: functional, cell-based; settings: dose 2.08-8.32 µM
# HT-29 = assay: Cytotoxicity against human HT-29 cells assessed as cell growth inhibition incubated for 48 hrs by MTT assay; assay type: functional, cell-based; settings: HT-29, 48 h
# SK-MEL-28 [10] = assay: Induction of apoptosis in human SK-MEL-28 cells assessed as changes in nuclear morphology at 2.08 to 8.32 uM incubated for 48 hrs by DAPI staining based fluorescence microscopic analysis; assay type: functional, cell-based; settings: dose 2.08-8.32 µM
# DNA topoisomerase 1 = molecular target: T1, DNA topoisomerase 1 (Homo sapiens, UniProt P11387); assay: Inhibition of human DNA topoisomerase 1 assessed as reduction in pBR322 DNA relaxation incubated for 1 hrs measured by agarose gel electrophoresis method
# T1 sequence (P11387 whole entry): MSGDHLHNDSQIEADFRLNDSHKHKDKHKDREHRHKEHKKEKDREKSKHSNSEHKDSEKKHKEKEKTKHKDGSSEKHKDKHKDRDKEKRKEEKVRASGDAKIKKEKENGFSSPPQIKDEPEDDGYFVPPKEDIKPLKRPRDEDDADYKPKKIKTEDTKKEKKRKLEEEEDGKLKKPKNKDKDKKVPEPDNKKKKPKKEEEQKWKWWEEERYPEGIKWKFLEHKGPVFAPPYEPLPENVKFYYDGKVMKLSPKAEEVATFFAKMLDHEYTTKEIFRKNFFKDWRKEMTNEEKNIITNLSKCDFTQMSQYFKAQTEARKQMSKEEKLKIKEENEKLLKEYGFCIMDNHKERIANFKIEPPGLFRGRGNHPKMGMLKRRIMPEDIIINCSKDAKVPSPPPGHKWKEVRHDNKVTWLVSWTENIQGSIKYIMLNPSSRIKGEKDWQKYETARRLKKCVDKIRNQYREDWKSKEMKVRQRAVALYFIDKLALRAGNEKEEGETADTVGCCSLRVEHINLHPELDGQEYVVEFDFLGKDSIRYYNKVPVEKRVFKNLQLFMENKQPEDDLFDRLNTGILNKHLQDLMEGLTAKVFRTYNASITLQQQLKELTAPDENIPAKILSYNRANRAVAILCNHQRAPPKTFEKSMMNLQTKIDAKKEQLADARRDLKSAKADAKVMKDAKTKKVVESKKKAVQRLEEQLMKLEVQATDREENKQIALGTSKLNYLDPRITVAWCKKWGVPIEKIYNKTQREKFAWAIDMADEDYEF
# SK-MEL-28 [11] = assay: Induction of apoptosis in human SK-MEL-28 cells assessed as apoptotic body fragmentation at 2.08 to 8.32 uM incubated for 48 hrs by AO/EB staining based fluorescence microscopy; assay type: functional, cell-based; settings: dose 2.08-8.32 µM, DDE = dose-dependent effect
# SK-MEL-28 [12] = assay: Induction of apoptosis in human SK-MEL-28 cells assessed as changes in cell morphology at 2.08 to 8.32 uM incubated for 48 hrs by phase contrast microscopy; assay type: functional, cell-based; settings: dose 2.08-8.32 µM
# SK-MEL-28 [13] = assay: Anti-migration activity in human SK-MEL-28 cells assessed as distance travelled at 8.32 uM by wound healing assay based phase contrast microscopy; assay type: functional
# SK-MEL-28 [14] = assay: Induction of apoptosis in human SK-MEL-28 cells assessed as late apoptotic cells measured upto 4.16 uM incubated for 48 hrs by Annexin V-FITC/propidium iodide staining based flow cytometric analysis; assay type: functional, cell-based
# SK-MEL-28 [15] = assay: Anti-migration activity in human SK-MEL-28 cells assessed as distance travelled at 2.08 uM incubated for 48 hrs by wound healing assay based phase contrast microscopy; assay type: functional
# SK-MEL-28 [16] = assay: Inhibition of colony formation in human SK-MEL-28 cells assessed as decrease in colonies at 2.08 to 8.32 uM incubated for 7 days by crystal violet staining based assay; assay type: functional, cell-based; settings: dose 2.08-8.32 µM, time 7.0 day, DDE = dose-dependent effect
# SK-MEL-28 [17] = assay: Anti-migration activity in human SK-MEL-28 cells assessed as distance travelled at 4.16 uM by wound healing assay based phase contrast microscopy; assay type: functional
# SK-MEL-28 [18] = assay: Anti-migration activity in human SK-MEL-28 cells assessed as distance travelled at 8.32 uM incubated for 48 hrs by wound healing assay based phase contrast microscopy; assay type: functional
# SK-MEL-28 [19] = assay: Induction of apoptosis in human SK-MEL-28 cells assessed as nuclear fragmentation at 2.08 to 8.32 uM incubated for 48 hrs by DAPI staining based fluorescence microscopic analysis; assay type: functional, cell-based; settings: dose 2.08-8.32 µM
# SK-MEL-28 [20] = assay: Induction of apoptosis in human SK-MEL-28 cells assessed as reduction on viable cells at 2.08 to 8.32 uM incubated for 48 hrs by phase contrast microscopy; assay type: functional, cell-based; settings: dose 2.08-8.32 µM, DDE = dose-dependent effect
# [21] = molecular target: T2, DNA topoisomerase 1 (Homo sapiens) (UniProt P11387); assay: Inhibition of DNA topoisomerase 1 (unknown origin) assessed as reduction in pBR322 DNA relaxation at 10 uM incubated for 30 mins measured by agarose gel electrophoresis method relative to control
# T2 sequence (whole entry): T1 sequence (P11387 whole entry)
# SK-MEL-28 [22] = assay: Induction of apoptosis in human SK-MEL-28 cells assessed as membrane blebbing at 2.08 to 8.32 uM incubated for 48 hrs by AO/EB staining based fluorescence microscopy; assay type: functional, cell-based; settings: dose 2.08-8.32 µM, DDE = dose-dependent effect
# SK-MEL-28 [23] = assay: Anti-migration activity in human SK-MEL-28 cells assessed as distance travelled at 2.08 uM by wound healing assay based phase contrast microscopy; assay type: functional
# Calf thymus DNA [24] = assay: Binding affinity to calf thymus DNA assessed as decrease in viscosity at 15 uM by ethidium bromide-Hoechst 33342 staining based analysis; assay type: nucleic-acid assay; settings: Bos taurus
# SK-MEL-28 [25] = assay: Anti-migration activity in human SK-MEL-28 cells assessed as distance travelled at 4.16 uM incubated for 48 hrs by wound healing assay based phase contrast microscopy; assay type: functional
# SK-MEL-28 [26] = assay: Cytotoxicity against human SK-MEL-28 cells assessed as cell growth inhibition incubated for 48 hrs by MTT assay; assay type: functional, cell-based; settings: SK-MEL-28, 48 h
# SK-MEL-28 [27] = assay: Induction of apoptosis in human SK-MEL-28 cells assessed as cell shrinkage at 2.08 to 8.32 uM incubated for 48 hrs by AO/EB staining based fluorescence microscopy; assay type: functional; settings: dose 2.08-8.32 µM, DDE = dose-dependent effect
# Calf thymus DNA [28] = assay: Binding affinity to calf thymus DNA assessed as hyperchromicity at 10 to 20 uM by UV-Vis spectroscopic analysis; assay type: nucleic-acid assay; settings: Bos taurus; dose 10-20 µM
# [29] = Cytotoxicity against rat NRK cells assessed as cell growth inhibition incubated for 48 hrs by MTT assay; assay type: toxicity, cell-based
# Chain of DNA topoisomerase 2-alpha (Homo sapiens) (P11388 whole entry): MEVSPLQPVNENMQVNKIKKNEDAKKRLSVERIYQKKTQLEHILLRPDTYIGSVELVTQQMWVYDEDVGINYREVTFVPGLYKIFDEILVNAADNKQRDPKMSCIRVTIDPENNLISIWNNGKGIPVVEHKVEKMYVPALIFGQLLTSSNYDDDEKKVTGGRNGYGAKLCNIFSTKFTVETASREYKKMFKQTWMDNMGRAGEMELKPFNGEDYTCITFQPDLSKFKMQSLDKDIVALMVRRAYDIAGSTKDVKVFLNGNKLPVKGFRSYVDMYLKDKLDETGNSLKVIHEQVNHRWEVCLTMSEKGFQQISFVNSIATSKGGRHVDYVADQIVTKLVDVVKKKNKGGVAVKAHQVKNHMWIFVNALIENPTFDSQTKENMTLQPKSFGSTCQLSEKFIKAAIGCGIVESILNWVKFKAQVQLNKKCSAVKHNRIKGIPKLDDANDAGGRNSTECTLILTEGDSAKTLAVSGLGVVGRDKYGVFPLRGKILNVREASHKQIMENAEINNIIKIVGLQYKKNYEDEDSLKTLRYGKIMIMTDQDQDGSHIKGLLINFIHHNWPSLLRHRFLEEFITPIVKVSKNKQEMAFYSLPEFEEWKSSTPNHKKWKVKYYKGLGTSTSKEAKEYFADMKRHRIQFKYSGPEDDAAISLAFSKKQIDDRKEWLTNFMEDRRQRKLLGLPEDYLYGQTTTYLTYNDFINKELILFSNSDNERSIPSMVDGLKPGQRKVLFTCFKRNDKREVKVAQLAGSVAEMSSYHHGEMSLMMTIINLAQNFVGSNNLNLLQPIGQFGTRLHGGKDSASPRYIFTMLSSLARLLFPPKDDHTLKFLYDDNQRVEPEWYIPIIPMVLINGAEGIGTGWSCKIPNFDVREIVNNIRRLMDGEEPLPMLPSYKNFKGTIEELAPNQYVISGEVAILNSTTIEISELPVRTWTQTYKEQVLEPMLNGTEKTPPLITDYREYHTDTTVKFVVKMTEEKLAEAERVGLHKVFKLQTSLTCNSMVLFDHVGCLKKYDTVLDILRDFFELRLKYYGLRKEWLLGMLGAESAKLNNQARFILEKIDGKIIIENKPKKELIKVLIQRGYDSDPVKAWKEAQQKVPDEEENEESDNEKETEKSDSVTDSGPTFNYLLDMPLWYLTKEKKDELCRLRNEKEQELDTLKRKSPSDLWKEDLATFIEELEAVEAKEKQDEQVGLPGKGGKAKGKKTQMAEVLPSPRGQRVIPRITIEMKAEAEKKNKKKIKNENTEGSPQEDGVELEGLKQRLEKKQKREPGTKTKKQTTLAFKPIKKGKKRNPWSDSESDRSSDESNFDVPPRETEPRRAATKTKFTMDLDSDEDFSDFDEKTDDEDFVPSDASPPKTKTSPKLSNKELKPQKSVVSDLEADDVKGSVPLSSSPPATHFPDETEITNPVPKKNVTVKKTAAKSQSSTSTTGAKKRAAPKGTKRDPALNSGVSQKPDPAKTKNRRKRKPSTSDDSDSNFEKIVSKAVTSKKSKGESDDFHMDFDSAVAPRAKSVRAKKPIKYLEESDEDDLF
smiles,measurement,setting,value
Cc1ccc(C/N=C2\NC(=O)/C(=C3\CCNC(=O)c4[nH]ccc43)S2)cc1,inhibition,[1],Active
same,pIC50,A549,5.04
same,Activity,SK-MEL-28 [2],Dde
same,pIC50,HCT-116,5.32
same,Activity,SK-MEL-28 [3],Dde
same,Activity,SK-MEL-28 [4],4.84%
same,Activity,Calf thymus DNA [5],Active
same,inhibition,SK-MEL-28 [6],Dde
same,Activity,SK-MEL-28 [7],Dde
same,Activity,SK-MEL-28 [8],Dde
same,pIC50,MCF7,5.09
same,Activity,SK-MEL-28 [9],Active
same,pIC50,HT-29,5.17
same,Activity,SK-MEL-28 [10],Active
same,pIC50,DNA topoisomerase 1,4.47
same,Activity,SK-MEL-28 [11],Dde
same,Activity,SK-MEL-28 [12],Active
same,Activity,SK-MEL-28 [13],798.09 um
same,Activity,SK-MEL-28 [14],Active
same,Activity,SK-MEL-28 [15],434.44 um
same,inhibition,SK-MEL-28 [16],Dde
same,Activity,SK-MEL-28 [17],736.33 um
same,Activity,SK-MEL-28 [18],573.08 um
same,Activity,SK-MEL-28 [19],Active
same,Activity,SK-MEL-28 [20],Dde
same,inhibition,[21],17%
same,Activity,SK-MEL-28 [22],Dde
same,Activity,SK-MEL-28 [23],670 um
same,Activity,Calf thymus DNA [24],Active
same,Activity,SK-MEL-28 [25],568.42 um
same,pIC50,SK-MEL-28 [26],5.38
same,Activity,SK-MEL-28 [27],Dde
same,Activity,Calf thymus DNA [28],Active
same,IC50 at 48 h,[29],41.9 µM
